US20220396569A1 (Carmot Therapeutics, Inc., priority 2021, published 2022)

target: T1, human GLP-1 receptor (Homo sapiens, UniProt P43220); test: GLP-1R cAMP Assay (HitHunter cAMP accumulation); format: cell-based; conditions: cAMP accumulation, CHO cells stably overexpressing human GLP-1 receptor, 30 min treatment; read-out: EC50
T1 construct: expressed in transfected cells
Method in brief: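 CHO cells stably expressing human GLP-1R, 10,000 cells/well in HBSS with 10 mM HEPES and 625 μM IBMX, were mixed with anti-cAMP antibody reagent. Compound was applied as a 20-point dose response in triplicate for 30 min. After lysis and overnight detection, luminescence was read and dose-response curves analysed.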

T1 sequence (P43220 24-463): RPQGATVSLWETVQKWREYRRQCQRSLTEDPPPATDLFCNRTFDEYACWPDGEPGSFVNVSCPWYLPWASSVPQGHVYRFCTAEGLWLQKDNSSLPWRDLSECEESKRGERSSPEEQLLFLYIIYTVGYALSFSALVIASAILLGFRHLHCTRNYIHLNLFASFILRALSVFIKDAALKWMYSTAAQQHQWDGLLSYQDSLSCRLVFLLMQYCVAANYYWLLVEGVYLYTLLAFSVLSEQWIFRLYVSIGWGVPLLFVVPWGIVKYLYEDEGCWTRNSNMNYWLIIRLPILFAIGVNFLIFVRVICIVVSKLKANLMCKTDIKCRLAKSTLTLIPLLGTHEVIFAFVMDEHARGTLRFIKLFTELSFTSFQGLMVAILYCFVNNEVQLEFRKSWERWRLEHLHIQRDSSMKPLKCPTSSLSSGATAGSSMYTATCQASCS

Question: `O=C(O)c1ccc2nc(CN3CC=C(c4ccc(F)c(COc5ccc(Cl)cc5F)n4)C3)n(C[C@@H]3CCO3)c2c1` [Example 407, (S)-2-((3-(6-((4-Chloro-2-fluorophenoxy)methyl)-5-fluoropyridin-2-yl)-2,5-dihydro-1H-pyrrol-1-yl)methyl)-1-(oxetan-2-ylmethyl)-1H-benzo[d]imidazole-6-carboxylic acid] was tested. Which EC50 did it give?
Answer: < 50 nM

Question: `O=C(O)c1ccc2nc(CN3CC=C(c4nccc(COc5ccc(Cl)cc5F)n4)C3)n(C[C@@H]3CCO3)c2c1` [Example 435, (S)-2-((3-(4-((4-Chloro-2-fluorophenoxy)methyl)pyrimidin-2-yl)-2,5-dihydro-1H-pyrrol-1-yl)methyl)-1-(oxetan-2-ylmethyl)-1H-benzo[d]imidazole-6-carboxylic acid] was tested. Which EC50 did it give?
Answer: < 50 nM

Question: For `O=C(O)c1cc(F)c2nc(Cc3ccc(Oc4ccnc(COc5ccc(Cl)cc5F)c4)cc3F)n(C[C@@H]3CCO3)c2c1` [Example 459, (S)-2-(4-((2-((4-Chloro-2-fluorophenoxy)methyl)pyridin-4-yl)oxy)-2-fluorobenzyl)-4-fluoro-1-(oxetan-2-ylmethyl)-1H-benzo[d]imidazole-6-carboxylic acid], which EC50 is on record?
Answer: < 50 nM

Question: `CCn1cncc1Cn1c(Cc2ccc(Oc3ccnc(COc4ccc(C#N)cc4F)n3)cc2F)nc2ccc(C(=O)O)cc21` [Example 460, 2-(4-((2-((4-Cyano-2-fluorophenoxy)methyl)pyrimidin-4-yl)oxy)-2-fluorobenzyl)-1-((1-ethyl-1H-imidazol-5-yl)methyl)-1H-benzo[d]imidazole-6-carboxylic acid] was tested. Which EC50 did it give?
Answer: < 50 nM

Question: For `O=C(O)c1cc(F)c2nc(Cc3ccc(Oc4ccnc(COc5ccc(Cl)cc5F)c4)c(F)c3)n(C[C@@H]3CCO3)c2c1` [Example 471, (S)-2-(4-((2-((4-Chloro-2-fluorophenoxy)methyl)pyridin-4-yl)oxy)-3-fluorobenzyl)-4-fluoro-1-(oxetan-2-ylmethyl)-1H-benzo[d]imidazole-6-carboxylic acid], which EC50 is on record?
Answer: < 50 nM

Question: For `O=C(O)c1ccc2nc(CN3CC=C(c4cnc(COc5ccc(Cl)cc5Cl)o4)C3)n(C[C@@H]3CCO3)c2c1` [Example 474, (S)-2-((3-(2-((2,4-Dichlorophenoxy)methyl)oxazol-5-yl)-2,5-dihydro-1H-pyrrol-1-yl)methyl)-1-(oxetan-2-ylmethyl)-1H-benzo[d]imidazole-6-carboxylic acid], which EC50 is on record?
Answer: < 50 nM
